In US12509459B2, “Inhibitors of NLRP3 inflammasome” (BioAge Labs, Inc., priority 2024, dated 2025):

Each molecule was assayed against NLRP3 (Homo sapiens, UniProt Q96P20) (assay: THP-1 cell-based NLRP3 activation assay). Details: PMA-differentiated THP-1 cells, LPS 100 ng/mL then 10 μM nigericin.
Sequence of NLRP3 (Q96P20 whole entry): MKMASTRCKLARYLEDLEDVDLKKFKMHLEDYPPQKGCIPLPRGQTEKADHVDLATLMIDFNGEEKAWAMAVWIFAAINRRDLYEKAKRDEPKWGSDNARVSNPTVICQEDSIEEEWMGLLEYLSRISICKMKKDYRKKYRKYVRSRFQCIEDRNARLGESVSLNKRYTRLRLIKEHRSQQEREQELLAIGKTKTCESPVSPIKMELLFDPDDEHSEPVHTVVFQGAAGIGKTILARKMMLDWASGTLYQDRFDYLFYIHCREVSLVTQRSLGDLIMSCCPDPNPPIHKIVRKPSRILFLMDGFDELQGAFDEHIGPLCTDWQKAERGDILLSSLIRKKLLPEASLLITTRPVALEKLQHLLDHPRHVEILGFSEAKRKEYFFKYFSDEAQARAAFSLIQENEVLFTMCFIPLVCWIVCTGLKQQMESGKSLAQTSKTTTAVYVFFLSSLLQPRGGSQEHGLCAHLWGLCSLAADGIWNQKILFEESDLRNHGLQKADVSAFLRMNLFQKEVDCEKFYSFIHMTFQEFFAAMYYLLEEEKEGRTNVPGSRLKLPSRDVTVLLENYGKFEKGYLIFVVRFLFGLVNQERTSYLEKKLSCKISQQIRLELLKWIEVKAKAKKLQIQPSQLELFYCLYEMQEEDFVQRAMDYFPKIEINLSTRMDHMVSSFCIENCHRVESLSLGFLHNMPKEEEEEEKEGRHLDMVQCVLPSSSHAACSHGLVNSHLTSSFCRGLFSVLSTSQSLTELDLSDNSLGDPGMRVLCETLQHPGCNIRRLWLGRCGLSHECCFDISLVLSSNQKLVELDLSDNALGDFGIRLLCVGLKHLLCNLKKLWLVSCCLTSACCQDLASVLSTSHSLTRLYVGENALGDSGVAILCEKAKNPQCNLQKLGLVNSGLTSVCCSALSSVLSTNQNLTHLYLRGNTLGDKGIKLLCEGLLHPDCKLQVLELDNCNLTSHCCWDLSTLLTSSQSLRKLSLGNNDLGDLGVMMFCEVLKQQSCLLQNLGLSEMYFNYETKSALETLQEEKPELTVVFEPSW
Set-up: endogenous in cells; host or cells: THP-1 cells (PMA-differentiated, LPS-primed, nigericin-stimulated)
In short: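 After 30 min compound preincubation, inflammasome activation was triggered with 10 μM nigericin (1 h) in LPS-primed (100 ng/mL, 3 h) THP-1 cells differentiated with PMA at 20 nM/24 h or 500 nM/3 h. CellTiter-Glo measured residual cell viability.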
`CCOc1cc(C(=O)N(C)[C@@H](c2cncc3cn[nH]c23)C2CN(CC)C2)ccc1-c1cccc(Cl)c1` [Compound 172] was tested, and the IC50 was < 100 nM.
In the case of `CCOc1cc(C(=O)N(C)[C@@H](c2cncc3cn[nH]c23)C2CN(CC)C2)ccc1-c1cccc(F)c1` [Compound 173], the IC50 is reported as < 100 nM.
In the case of `CCOc1cc(C(=O)N(C)[C@H](c2cncc3cn[nH]c23)C2CN(CC)C2)ccc1-c1cccc(F)c1` [Compound 174], the IC50 is reported as < 100 nM.
In the case of `CCOc1cc(C(=O)N(C)[C@@H](c2cncc3cn[nH]c23)C2CN(C(C)C)C2)ccc1-c1cccc(F)c1` [Compound 175], the IC50 is reported as < 100 nM.
In the case of `CCOc1cc(C(=O)N(C)[C@H](c2cncc3cn[nH]c23)C2CN(C(C)C)C2)ccc1-c1cccc(F)c1` [Compound 176], the IC50 is reported as 100 to 500 nM.
In the case of `CCOc1cc(C(=O)N(C)[C@@H](c2cncc3cn[nH]c23)C2CN(CC)C2)ccc1-c1ccccc1` [Compound 177], the IC50 is reported as < 100 nM.
`CCOc1cc(C(=O)N(C)[C@@H](c2cncc3cn[nH]c23)C2CN(C)C2)ccc1-c1ccccc1` [Compound 178] was tested, and the IC50 was < 100 nM.
`CCOc1cc(C(=O)N(C)[C@@H](c2cncc3cn[nH]c23)C2CN(C(C)C)C2)ccc1-c1ccccc1` [Compound 179] was tested, and the IC50 was < 100 nM.
In the case of `CCOc1cccc(C(=O)N(C)[C@H](CCN(C)C)c2cnc(CO)c3cn[nH]c23)c1` [Compound 180], the IC50 is reported as 500 to 1000 nM.
`CCOc1cc(C(=O)N(C)[C@@H](c2cncc3cn[nH]c23)C2CNC2)ccc1-c1cccc(Cl)c1` [Compound 181] was tested, and the IC50 was < 100 nM.
For `CCOc1cc(C(=O)N(C)[C@H](c2cncc3cn[nH]c23)C2CNC2)ccc1-c1cccc(Cl)c1` [Compound 182], the IC50 was < 100 nM.
With `CCOc1cc(C(=O)N(C)[C@@H](c2cncc3cn[nH]c23)C2CN(C)C2)ccc1-c1cccc(Cl)c1` [Compound 183] the IC50 was < 100 nM.
In the case of `CCOc1cc(C(=O)N(C)[C@H](CCN(CC)CCF)c2cncc3cn[nH]c23)ccc1-c1cccc(F)c1` [Compound 184], the IC50 is reported as < 100 nM.
`CCOc1cc(C(=O)N(C)[C@H](CCN)c2cncc3cn[nH]c23)ccc1C` [Compound 185] gave an IC50 of 1000 to 15000 nM.
`CCOc1cc(C(=O)N(C)[C@H](CCN(C)C)c2cccc3cn[nH]c23)ccc1-c1cccc(F)c1` [Compound 186] was tested, and the IC50 was < 100 nM.
For `CCOc1cc(C(=O)N(C)[C@@H](CN2CC(N(C)C)C2)c2cncc3cn[nH]c23)ccc1-c1cccc(F)c1` [Compound 187], the IC50 was < 100 nM.
In the case of `CCOc1cc(C(=O)N(C)[C@H](CN(C)C)c2cnc(CO)c3cn[nH]c23)ccc1-c1cccc(F)c1` [Compound 188], the IC50 is reported as < 100 nM.
For `CCOc1cc(C(=O)N(C)C(c2cncc3cn[nH]c23)C2C[N+](C)([O-])C2)ccc1-c1cccc(F)c1` (stereo not shown) [Compound 192], the IC50 was 100 to 500 nM.
With `CCOc1cc(C(=O)N(C)[C@H](CCNC)c2cncc3cn[nH]c23)ccc1-c1ccccc1` [Compound 193] the IC50 was < 100 nM.
With `CCOc1cc(C(=O)N(C)[C@H](CCN(C)C)c2cccc3cn[nH]c23)ccc1-c1ccccc1` [Compound 194] the IC50 was < 100 nM.
For `CCOc1cc(C(=O)N(C)[C@H](CCN(C)C)c2cccc3cn[nH]c23)ccc1-c1cccc(C)c1` [Compound 195], the IC50 was < 100 nM.
For `CCOc1cc(C(=O)N(C)[C@H](CCN(C)C)c2cccc3cn[nH]c23)ccc1-c1cccc(C#N)c1` [Compound 196], the IC50 was < 100 nM.
With `CCOc1cc(C(=O)N(C)[C@H](CCNC)c2cccc3cn[nH]c23)ccc1-c1cccc(F)c1` [Compound 197] the IC50 was < 100 nM.
With `CN(C)CC[C@H](c1cccc2cn[nH]c12)N(C)C(=O)c1ccc(-c2cccc(F)c2)c(OC2CC2)c1` [Compound 198] the IC50 was < 100 nM.
For `CN(C)CC[C@H](c1cccc2cn[nH]c12)N(C)C(=O)c1ccc(-c2ccccc2)c(OC2CC2)c1` [Compound 199], the IC50 was < 100 nM.
For `CCOc1cc(C(=O)N(C)[C@H](CCN(C)C)c2ccc(C)c3cn[nH]c23)ccc1-c1cccc(F)c1` [Compound 200], the IC50 was 100 to 500 nM.
`CCOc1cc(C(=O)N(C)[C@@H](CCN(C)C)c2ccc(C)c3cn[nH]c23)ccc1-c1cccc(F)c1` [Compound 201] gave an IC50 of 100 to 500 nM.
In the case of `Cc1ccc([C@@H](CCN(C)C)N(C)C(=O)c2ccc(-c3cccc(F)c3)c(OC3CC3)c2)c2[nH]ncc12` [Compound 202], the IC50 is reported as < 100 nM.
For `Cc1ccc([C@H](CCN(C)C)N(C)C(=O)c2ccc(-c3cccc(F)c3)c(OC3CC3)c2)c2[nH]ncc12` [Compound 203], the IC50 was < 100 nM.
Molecule `CCOc1cc(C(=O)N(C)[C@H](CCN(C)C)c2ccc(C)c3cn[nH]c23)ccc1-c1ccccc1` [Compound 204] has an IC50 of 100 to 500 nM.
`CCOc1cc(C(=O)N(C)[C@@H](CCN(C)C)c2ccc(C)c3cn[nH]c23)ccc1-c1ccccc1` [Compound 205] was tested, and the IC50 was < 100 nM.
In the case of `CCOc1cc(C(=O)N(C)[C@H](CC[N+](C)(C)[O-])c2cccc3cn[nH]c23)ccc1-c1cccc(Cl)c1` [Compound 206], the IC50 is reported as < 100 nM.
In the case of `CCOc1cc(C(=O)N(C)[C@H](CC[N+]([O-])(CC)CC)c2cccc3cn[nH]c23)ccc1-c1cccc(Cl)c1` [Compound 207], the IC50 is reported as < 100 nM.
Molecule `CCOc1cc(C(=O)N(C)[C@H](CN(C)C)c2cncc3cn[nH]c23)ccc1C(C)C` [Compound 208] has an IC50 of 1000 to 15000 nM.
For `CCOc1cc(C(=O)N(C)[C@@H](CN(C)C)c2cncc3cn[nH]c23)ccc1C(C)C` [Compound 209], the IC50 was < 100 nM.
`CCOc1cc(C(=O)N(C)[C@H](CC[N+](C)(C)[O-])c2cncc3cn[nH]c23)ccc1-c1cccc(Cl)c1` [Compound 210] gave an IC50 of 1000 to 15000 nM.
`CCOc1cc(C(=O)N(C)[C@@H](CCN(C)C)c2cccc3cn[nH]c23)ccc1-c1ccccc1` [Compound 212] was tested, and the IC50 was < 100 nM.
With `CCOc1cc(C(=O)N(C)[C@H](CCN(C)C)c2cccc3cn[nH]c23)ccc1-c1cccc(Cl)c1` [Compound 213] the IC50 was < 100 nM.
In the case of `CCOc1cc(C(=O)N(C)[C@H](CCN(C)CC)c2cccc3cn[nH]c23)ccc1-c1cccc(F)c1` [Compound 214], the IC50 is reported as < 100 nM.
For `CCOc1cc(C(=O)N(C)[C@H](CCN(CC)CC)c2cccc3cn[nH]c23)ccc1-c1cccc(F)c1` [Compound 215], the IC50 was < 100 nM.
For `CCOc1cc(C(=O)N(C)[C@H](CC[N+]([O-])(CC)CC)c2cccc3cn[nH]c23)ccc1-c1cccc(F)c1` [Compound 216], the IC50 was < 100 nM.
With `CCOc1cc(C(=O)N(C)[C@H](CCN2CCC2)c2cccc3cn[nH]c23)ccc1-c1cccc(F)c1` [Compound 217] the IC50 was < 100 nM.
With `CCOc1cc(C(=O)N(C)[C@H](CCN2CCC2)c2cccc3cn[nH]c23)ccc1-c1cccc(Cl)c1` [Compound 218] the IC50 was < 100 nM.
`CCOc1cc(C(=O)N(C)[C@H](CCN(C)C)c2cccc3cn[nH]c23)ccc1-c1cc(F)cc(F)c1` [Compound 219] was tested, and the IC50 was < 100 nM.
`CCOc1cc(C(=O)N(C)[C@H](CN(C)C)c2cccc3cn[nH]c23)ccc1-c1cccc(Cl)c1` [Compound 220] was tested, and the IC50 was 100 to 500 nM.
`CCOc1cc(C(=O)N(C)[C@@H](CN(C)C)c2cccc3cn[nH]c23)ccc1-c1cccc(Cl)c1` [Compound 221] was tested, and the IC50 was < 100 nM.
For `CCOc1cc(C(=O)N(C)[C@H](CN2CCCC2)c2cccc3cn[nH]c23)ccc1-c1cccc(F)c1` [Compound 222], the IC50 was 500 to 1000 nM.
In the case of `CCOc1cc(C(=O)N(C)[C@@H](CN2CCCC2)c2cccc3cn[nH]c23)ccc1-c1cccc(F)c1` [Compound 223], the IC50 is reported as < 100 nM.
With `CCOc1cc(C(=S)N(C)[C@H](CCN(C)C)c2cncc3cn[nH]c23)ccc1-c1cccc(F)c1` [Compound 224] the IC50 was < 100 nM.
In the case of `CN(C(=O)c1ccc(-c2cccc(F)c2)c(OC2CC2)c1)[C@H](CCN1CCC1)c1cncc2cn[nH]c12` [Compound 225], the IC50 is reported as < 100 nM.
`CCOc1cc(C(=O)N(C)C(CN(C)C)c2cncc3cn[nH]c23)ccc1-c1ccccc1` (stereo not shown) [Compound 226] showed an IC50 of 100 to 500 nM.
With `CCOc1cc(C(=O)N(C)[C@H](CC[N+](C)(C)[O-])c2cccc3cn[nH]c23)ccc1-c1cccc(F)c1` [Compound 227] the IC50 was < 100 nM.
For `CCOc1cc(C(=O)N(C)[C@H](CCNC)c2cncc3cn[nH]c23)ccc1-c1cccc(Cl)c1` [Compound 228], the IC50 was < 100 nM.
For `CCOc1cc(C(=O)N(C)[C@H](CCN(C)CCOC)c2cncc3cn[nH]c23)ccc1-c1cccc(Cl)c1` [Compound 229], the IC50 was < 100 nM.
In the case of `CCOc1cc(C(=O)N(C)[C@H](CCN(C)CCO)c2cncc3cn[nH]c23)ccc1-c1cccc(Cl)c1` [Compound 230], the IC50 is reported as < 100 nM.
`[2H]C([2H])([2H])NCC[C@H](c1cncc2cn[nH]c12)N(C)C(=O)c1ccc(-c2cccc(F)c2)c(OCC)c1` [Compound 231] was tested, and the IC50 was < 100 nM.
With `CCOc1cc(C(=O)N(C)[C@H](CCNC)c2cncc3cn[nH]c23)ccc1-c1cccc(C#N)c1` [Compound 232] the IC50 was < 100 nM.
With `CCOc1cc(C(=O)N(C)[C@H](CCNC)c2cccc3cn[nH]c23)ccc1-c1cccc(Cl)c1` [Compound 233] the IC50 was < 100 nM.
`CCOc1cc(C(=O)N(Cc2cncc3cn[nH]c23)[C@H]2C[C@@H](NC)C2)ccc1-c1cccc(F)c1` [Compound 234] showed an IC50 of 1000 to 15000 nM.
`CCOc1cc(C(=O)N(Cc2cncc3cn[nH]c23)C2CC(NC)C2)ccc1-c1cccc(F)c1` (stereo not shown) [Compound 235] was tested, and the IC50 was 100 to 500 nM.
With `CCOc1cc(C(=O)N(Cc2cncc3cn[nH]c23)C2CC(NC)C2)ccc1-c1cccc(Cl)c1` (stereo not shown) [Compound 236] the IC50 was < 100 nM.
Work on `CCOc1cc(C(=O)N(Cc2cncc3cn[nH]c23)C2CC(NC)C2)ccc1-c1ccccc1` (stereo not shown) [Compound 237] yielded an IC50 of 1000 to 15000 nM.
With `CCOc1cc(C(=O)N(Cc2cncc3cn[nH]c23)[C@H]2C[C@@H](NC)C2)ccc1-c1cccc(Cl)c1` [Compound 238] the IC50 was < 100 nM.
With `CCOc1cc(C(=O)N(Cc2cncc3cn[nH]c23)[C@H]2C[C@@H](NC)C2)ccc1-c1ccccc1` [Compound 239] the IC50 was < 100 nM.
Molecule `CCOc1cc(C(=O)N(Cc2cncc3cn[nH]c23)C2CC(N(C)C)C2)ccc1-c1cccc(F)c1` (stereo not shown) [Compound 240] has an IC50 of 500 to 1000 nM.
For `CCOc1cc(C(=O)N(C)C(c2cccc3cn[nH]c23)C2CN(C)C2)ccc1-c1cccc(Cl)c1` (stereo not shown) [Compound 241], the IC50 was < 100 nM.
`CCOc1cc(C(=O)N(Cc2cncc3cn[nH]c23)C2CC(N(C)C)C2)ccc1-c1cccc(Cl)c1` (stereo not shown) [Compound 242] showed an IC50 of 100 to 500 nM.
